The values below come from US20100016274A1, “BETA-LACTAM CANNABINOID RECEPTOR MODULATORS” (priority 2006, published 2010).

This test addresses T1, hCB2 (membranes from hCB2 stably transfected CHO cells) (Homo sapiens, UniProt P34972).
T1 construct: purchased Perkin Elmer/NEN; host or cells: CHO cells, stably transfected
Description: Cannabinoid Receptor-2 (CB2) Functional Activity Assay, Method A (35S-GTPγS). It is filed as biochemical. The settings on record: positive control, FIG. 9a. As for the experimental part: Membranes are diluted in ice-cold assay buffer (10 mM HEPES, 100 mM NaCl, 10 mM MgCl2, 2 μM GDP, 0.2% FAF-BSA, 10 μg/mL saponin) to 38 μg membranes/mL. Dilute ^35S-GTPγS to 1 nM in assay buffer. […] These solutions are incubated for 30 minutes at 30° C. The filters are washed 6 times with 10 mM sodium phosphate buffer (pH 7.4) at ambient temperature. The filters are counted using a liquid scintillation counter on the ^35S channel. Each compound/concentration is run in triplicate. A positive antagonism control is run for AM630 at the same concentrations as test compounds under the same conditions.
For orientation: GTPγS resists hydrolysis and so accumulates on activated G proteins.

T1 sequence (P34972 whole entry): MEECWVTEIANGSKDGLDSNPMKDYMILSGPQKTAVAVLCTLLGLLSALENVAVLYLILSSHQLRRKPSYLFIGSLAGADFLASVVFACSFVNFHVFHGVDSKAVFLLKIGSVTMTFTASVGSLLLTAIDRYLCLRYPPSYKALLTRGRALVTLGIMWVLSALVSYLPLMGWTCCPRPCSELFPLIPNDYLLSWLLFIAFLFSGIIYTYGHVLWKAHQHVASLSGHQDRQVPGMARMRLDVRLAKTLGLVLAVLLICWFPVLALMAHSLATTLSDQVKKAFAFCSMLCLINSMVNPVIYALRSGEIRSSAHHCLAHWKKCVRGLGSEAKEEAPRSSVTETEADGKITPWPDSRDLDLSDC

Turning to `CCCCCCC(C)(C)c1ccc(C2CC(O)CCC2CCCO)c(O)c1` (stereo not shown) [CP55940, 5-(1,1-dimethylheptyl)-2-[5-hydroxy-2-(3-hydroxypropyl)-cyclohexyl]-phenol], the “agonism of CB2 receptors” value is listed as “agonism”.
